{"source": "patent US9695155B2", "about": "“Herbicidal substituted pyrimidinyloxy benzene compounds” (E. I. DU PONT DE NEMOURS AND COMPANY, priority 2013, dated 2017)", "key": {"dayflower": {"tested_on": "dayflower", "experiment": "Test E preemergence", "type": "in vivo, Commelina virginica", "conditions": "for Dayflower, VA plant response rating: scale 0 to 100 (0 no effect, 100 complete control); for Plant response rating, Dayflower, VA: scale 0 to 100, 0 no effect, 100 complete control", "summary_of_the_method": "(§1)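 Test chemicals formulated in a non-phytotoxic solvent mixture containing a surfactant were applied preemergence to seeds in silt loam soil or postemergence to plants at the 1- to 4-leaf stage in potting mix. After 14 to 21 days in a greenhouse, injury was visually rated against controls on a 0-100 scale (0 = no effect, 100 = complete control).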"}, "wild poinsettia": {"tested_on": "wild poinsettia", "experiment": "Test E preemergence", "type": "in vivo, Euphorbia heterophylla", "conditions": "for Poinsettia, Wild plant response rating: scale 0 to 100 (0 no effect, 100 complete control); for Plant response rating, Poinsettia, Wild: scale 0 to 100, 0 no effect, 100 complete control", "summary_of_the_method": "as §1"}, "Italian ryegrass [1]": {"tested_on": "Italian ryegrass", "experiment": "Test A postemergence", "type": "in vivo, Lolium multiflorum", "conditions": "0 to 100 scale where 0 is no effect and 100 is complete control", "summary_of_the_method": "(§2)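 Visual 0–100 rating (100 = complete control) taken about 10 d post-treatment relative to untreated checks. Preemergence: directed soil spray on sown loam/sand pots. Postemergence: seedlings 2–10 cm, 1–2 leaf. Non-phytotoxic solvent formulation with surfactant.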"}, "rice": {"tested_on": "rice", "experiment": "Test C flooded paddy test", "type": "in vivo, Oryza sativa", "conditions": "Flood, scale 0 to 100 (0 no effect, 100 complete control), 13 to 15 days", "summary_of_the_method": "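In-water treatment: compound dosed into 3 cm flood over soil, water level unchanged throughout. Controls run alongside; visual assessment at day 13–15.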"}, "goosegrass": {"tested_on": "goosegrass", "experiment": "Test E preemergence", "type": "in vivo, Eleusine indica", "conditions": "for Goosegrass plant response rating: scale 0 to 100 (0 no effect, 100 complete control); for Plant response rating, Goosegrass: scale 0 to 100, 0 no effect, 100 complete control", "summary_of_the_method": "as §1"}, "ragweed": {"tested_on": "ragweed", "experiment": "Test A preemergence", "type": "in vivo, Ambrosia elatior", "summary_of_the_method": "as §2"}, "Italian ryegrass [2]": {"tested_on": "Italian ryegrass", "experiment": "Test E preemergence", "type": "in vivo, Lolium multiflorum", "conditions": "for Ryegrass, Italian plant response rating: scale 0 to 100 (0 no effect, 100 complete control); for Plant response rating, Ryegrass, Italian: scale 0 to 100, 0 no effect, 100 complete control", "summary_of_the_method": "as §1"}, "surinam grass": {"tested_on": "surinam grass", "experiment": "Test E preemergence", "type": "in vivo, Brachiaria decumbens", "conditions": "for Surinam Grass plant response rating: scale 0 to 100 (0 no effect, 100 complete control); for Plant response rating, Surinam Grass: scale 0 to 100, 0 no effect, 100 complete control", "summary_of_the_method": "as §1"}, "hairy beggarticks": {"tested_on": "hairy beggarticks", "experiment": "Test E preemergence", "type": "in vivo, Bidens pilosa", "conditions": "for Plant response rating, Beggarticks: scale 0 to 100, 0 no effect, 100 complete control", "summary_of_the_method": "as §1"}, "arrowleaf sida": {"tested_on": "arrowleaf sida", "experiment": "Test E preemergence", "type": "in vivo, Sida rhombifolia", "conditions": "for Plant response rating, Arrowleaf Sida: scale 0 to 100, 0 no effect, 100 complete control", "summary_of_the_method": "as §1"}, "kochia": {"tested_on": "kochia", "experiment": "Test A postemergence", "type": "in vivo, Kochia scoparia", "conditions": "0 to 100 scale where 0 is no effect and 100 is complete control", "summary_of_the_method": "as §2"}, "lambsquarters": {"tested_on": "lambsquarters", "experiment": "Test E preemergence", "type": "in vivo, Chenopodium album", "conditions": "for Lambsquarters plant response rating: scale 0 to 100 (0 no effect, 100 complete control); for Plant response rating, Lambsquarters: scale 0 to 100, 0 no effect, 100 complete control", "summary_of_the_method": "as §1"}, "green foxtail": {"tested_on": "green foxtail", "experiment": "Test E preemergence", "type": "in vivo, Setaria viridis", "conditions": "for Foxtail, Green plant response rating: scale 0 to 100 (0 no effect, 100 complete control); for Plant response rating, Foxtail, Green: scale 0 to 100, 0 no effect, 100 complete control", "summary_of_the_method": "as §1"}, "sandbur": {"tested_on": "sandbur", "experiment": "Test E preemergence", "type": "in vivo, Cenchrus echinatus", "conditions": "for Sandbur plant response rating: scale 0 to 100 (0 no effect, 100 complete control); for Plant response rating, Sandbur: scale 0 to 100, 0 no effect, 100 complete control", "summary_of_the_method": "as §1"}, "yellow nutsedge": {"tested_on": "yellow nutsedge", "experiment": "Test E preemergence", "type": "in vivo, Cyperus esculentus", "conditions": "for Nutsedge, Yellow plant response rating: scale 0 to 100 (0 no effect, 100 complete control); for Plant response rating, Nutsedge, Yellow: scale 0 to 100, 0 no effect, 100 complete control", "summary_of_the_method": "as §1"}, "[3]": {"conditions": "31 g ai/ha, preemergence, scale 0 to 100 (0 no effect, 100 complete control)"}}}
{"smiles": "CCOc1cnn(-c2c(C#N)cccc2Oc2ncc(F)cn2)c1", "note": "[Compound 89]", "values": [{"measurement": "Dayflower, VA plant response rating", "setting": "dayflower; 31 g ai/ha", "value": 0}, {"measurement": "Dayflower, VA plant response rating", "setting": "dayflower; 62 g ai/ha", "value": 60}, {"measurement": "Plant response rating, Dayflower, VA", "setting": "dayflower; 125 g ai/ha", "value": 80}, {"measurement": "Plant response rating, Dayflower, VA", "setting": "dayflower; 250 g ai/ha", "value": 98}, {"measurement": "Poinsettia, Wild plant response rating", "setting": "wild poinsettia; 31 g ai/ha", "value": 20}, {"measurement": "Poinsettia, Wild plant response rating", "setting": "wild poinsettia; 62 g ai/ha", "value": 40}, {"measurement": "Plant response rating, Poinsettia, Wild", "setting": "wild poinsettia; 125 g ai/ha", "value": 70}, {"measurement": "Plant response rating, Poinsettia, Wild", "setting": "wild poinsettia; 250 g ai/ha", "value": 85}, {"measurement": "Plant response rating, Ryegrass, Italian", "setting": "Italian ryegrass [1]; 125 g ai/ha", "value": 0}, {"measurement": "Plant response rating, Ryegrass, Italian", "setting": "Italian ryegrass [1]; 500 g ai/ha", "value": 90}, {"measurement": "Plant response rating, Rice", "setting": "rice; 62 g ai/ha", "value": 0}, {"measurement": "Plant response rating, Rice", "setting": "rice; 125 g ai/ha", "value": 0}, {"measurement": "Plant response rating, Rice", "setting": "rice; 250 g ai/ha", "value": 0}, {"measurement": "Goosegrass plant response rating", "setting": "goosegrass; 31 g ai/ha", "value": 0}, {"measurement": "Goosegrass plant response rating", "setting": "goosegrass; 62 g ai/ha", "value": 0}, {"measurement": "Plant response rating, Goosegrass", "setting": "goosegrass; 125 g ai/ha", "value": 5}, {"measurement": "Plant response rating, Goosegrass", "setting": "goosegrass; 250 g ai/ha", "value": 50}, {"measurement": "Plant response rating, Ragweed", "setting": "ragweed; 125 g ai/ha, 0 to 100 scale where 0 is no effect and 100 is complete control", "value": 50}, {"measurement": "Ragweed plant response rating", "setting": "ragweed; 500 g ai/ha, 0 to 100 scale, 0 no effect, 100 complete control, approx. 10 days", "value": 70}, {"measurement": "Ryegrass, Italian plant response rating", "setting": "Italian ryegrass [2]; 31 g ai/ha", "value": 0}, {"measurement": "Ryegrass, Italian plant response rating", "setting": "Italian ryegrass [2]; 62 g ai/ha", "value": 0}, {"measurement": "Plant response rating, Ryegrass, Italian", "setting": "Italian ryegrass [2]; 125 g ai/ha", "value": 0}, {"measurement": "Plant response rating, Ryegrass, Italian", "setting": "Italian ryegrass [2]; 250 g ai/ha", "value": 0}, {"measurement": "Surinam Grass plant response rating", "setting": "surinam grass; 31 g ai/ha", "value": 0}, {"measurement": "Surinam Grass plant response rating", "setting": "surinam grass; 62 g ai/ha", "value": 0}, {"measurement": "Plant response rating, Surinam Grass", "setting": "surinam grass; 125 g ai/ha", "value": 10}, {"measurement": "Plant response rating, Surinam Grass", "setting": "surinam grass; 250 g ai/ha", "value": 75}, {"measurement": "Beggarticks plant response rating", "setting": "hairy beggarticks; [3]", "value": 35}, {"measurement": "Plant response rating, Beggarticks", "setting": "hairy beggarticks; Preemergence, 62 g ai/ha", "value": 60}, {"measurement": "Plant response rating, Beggarticks", "setting": "hairy beggarticks; preemergence, 125 g ai/ha", "value": 80}, {"measurement": "Plant response rating, Beggarticks", "setting": "hairy beggarticks; preemergence, 250 g ai/ha", "value": 95}, {"measurement": "Arrowleaf Sida plant response rating", "setting": "arrowleaf sida; [3]", "value": 50}, {"measurement": "Plant response rating, Arrowleaf Sida", "setting": "arrowleaf sida; Preemergence, 62 g ai/ha", "value": 75}, {"measurement": "Plant response rating, Arrowleaf Sida", "setting": "arrowleaf sida; preemergence, 125 g ai/ha", "value": 100}, {"measurement": "Plant response rating, Arrowleaf Sida", "setting": "arrowleaf sida; preemergence, 250 g ai/ha", "value": 100}, {"measurement": "Plant response rating, Kochia", "setting": "kochia; 125 g ai/ha", "value": 80}, {"measurement": "Plant response rating, Kochia", "setting": "kochia; 500 g ai/ha", "value": 90}, {"measurement": "Lambsquarters plant response rating", "setting": "lambsquarters; 31 g ai/ha", "value": 20}, {"measurement": "Lambsquarters plant response rating", "setting": "lambsquarters; 62 g ai/ha", "value": 5}, {"measurement": "Plant response rating, Lambsquarters", "setting": "lambsquarters; 125 g ai/ha", "value": 95}, {"measurement": "Plant response rating, Lambsquarters", "setting": "lambsquarters; 250 g ai/ha", "value": 100}, {"measurement": "Foxtail, Green plant response rating", "setting": "green foxtail; 31 g ai/ha", "value": 0}, {"measurement": "Foxtail, Green plant response rating", "setting": "green foxtail; 62 g ai/ha", "value": 35}, {"measurement": "Plant response rating, Foxtail, Green", "setting": "green foxtail; 125 g ai/ha", "value": 65}, {"measurement": "Plant response rating, Foxtail, Green", "setting": "green foxtail; 250 g ai/ha", "value": 85}, {"measurement": "Sandbur plant response rating", "setting": "sandbur; 31 g ai/ha", "value": 0}, {"measurement": "Sandbur plant response rating", "setting": "sandbur; 62 g ai/ha", "value": 10}, {"measurement": "Plant response rating, Sandbur", "setting": "sandbur; 125 g ai/ha", "value": 10}, {"measurement": "Plant response rating, Sandbur", "setting": "sandbur; 250 g ai/ha", "value": 20}, {"measurement": "Nutsedge, Yellow plant response rating", "setting": "yellow nutsedge; 31 g ai/ha", "value": 0}, {"measurement": "Nutsedge, Yellow plant response rating", "setting": "yellow nutsedge; 62 g ai/ha", "value": 0}, {"measurement": "Plant response rating, Nutsedge, Yellow", "setting": "yellow nutsedge; 125 g ai/ha", "value": 20}, {"measurement": "Plant response rating, Nutsedge, Yellow", "setting": "yellow nutsedge; 250 g ai/ha", "value": 35}]}
